These results are taken from US20150087649A1, “TREATING DISORDERS ASSOCIATED WITH ABERRANT ADRENOCORTICAL CELL BEHAVIOR” (Atterocor, Inc., priority 2013, published 2015).

The target in one assay is T1, human ACAT2 (Homo sapiens, UniProt O75908).
T1 sequence (O75908 1-522): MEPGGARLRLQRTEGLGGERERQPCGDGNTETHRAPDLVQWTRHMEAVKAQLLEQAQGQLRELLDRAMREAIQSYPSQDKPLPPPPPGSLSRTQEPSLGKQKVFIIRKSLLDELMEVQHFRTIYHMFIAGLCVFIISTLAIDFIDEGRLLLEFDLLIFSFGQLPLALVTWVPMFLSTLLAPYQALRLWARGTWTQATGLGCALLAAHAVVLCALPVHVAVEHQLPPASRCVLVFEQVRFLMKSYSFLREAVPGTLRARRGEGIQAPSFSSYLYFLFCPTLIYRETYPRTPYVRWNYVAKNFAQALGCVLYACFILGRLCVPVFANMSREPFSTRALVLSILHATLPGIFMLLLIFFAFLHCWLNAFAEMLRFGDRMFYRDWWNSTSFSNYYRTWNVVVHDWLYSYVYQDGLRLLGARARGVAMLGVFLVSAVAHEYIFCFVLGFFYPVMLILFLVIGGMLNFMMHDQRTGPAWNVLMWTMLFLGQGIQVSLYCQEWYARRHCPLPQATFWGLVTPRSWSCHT
Briefly: Fluorescent NBD-cholesterol esterification assay in AC29 stable transfectants, Table 2. Format: cell-based. Here is the method: [The procedure below names another target; the source lists this target under the same test.] (§1) Cells were maintained in monolayer at 37° C. in 5% CO2 in Ham's F-12 medium supplemented with 1% Eagle's vitamins, penicillin (100 units/ml), streptomycin (100 μg/ml), and 10% heat-inactivated fetal bovine serum, and cells were typically grown to 70-90% confluence for all experiments.
(§2) Human ACAT1 activity was assessed using a fluorescent cell-based assay as described in Lada et al. (supra). The assay uses 22-[N-(7-nitrobenz-2-oxa-1,3-diazol-4-yl)amino]-23,24-bisnor-5-cholen-3-ol (NBD-cholesterol), a fluorescent sterol analog in which the NBD moiety replaces the terminal segment of the alkyl tail of cholesterol. […] In a polar environment, NBD-cholesterol is weakly fluorescent. In a nonpolar environment, NBD-cholesterol strongly is strongly fluorescent. The fluorescent property of NBD-cholesterol is used to measure ACAT activity, as cholesterol is a polar lipid and cholesteryl ester is nonpolar. 3×10^5 cells per well were plated on Falcon 96-well culture plates and allowed to recover overnight. Assays were performed with cells that are at least 80% confluent. Media was aspirated and wells were pre-incubated with 100 μL of dilutions of control and test compounds from 1000× stock solutions in DMSO (or other neutral diluent e.g., methanol, ethanol, or water) for 20 minutes. Media was removed and replaced with 100 μL of medium containing the same dilution of compound or vehicle as in the pre-incubation and 1 μg/ml NBD-cholesterol and incubated for 6 hr at 37° C. (Lada et al., supra). […] Parental AC29 cells incubated with NBD-cholesterol or ACAT1-expressing cells incubated with NBD-cholesterol and the […] were used to determine background fluorescence attributable to free NBD-cholesterol. After incubation, medium is removed, and the cells were washed two times with cold balanced salt solution (BSS). […] Cholesteryl ester (CE) fluorescence was calculated by subtracting the background from the total fluorescence, and these values were normalized by cellular protein.

The target in the next assay is T2, human ACAT1 (Homo sapiens, UniProt P35610, Q526R).
T2 construct: expressed in transfected cells
T2 sequence (P35610 1-550 Q526R): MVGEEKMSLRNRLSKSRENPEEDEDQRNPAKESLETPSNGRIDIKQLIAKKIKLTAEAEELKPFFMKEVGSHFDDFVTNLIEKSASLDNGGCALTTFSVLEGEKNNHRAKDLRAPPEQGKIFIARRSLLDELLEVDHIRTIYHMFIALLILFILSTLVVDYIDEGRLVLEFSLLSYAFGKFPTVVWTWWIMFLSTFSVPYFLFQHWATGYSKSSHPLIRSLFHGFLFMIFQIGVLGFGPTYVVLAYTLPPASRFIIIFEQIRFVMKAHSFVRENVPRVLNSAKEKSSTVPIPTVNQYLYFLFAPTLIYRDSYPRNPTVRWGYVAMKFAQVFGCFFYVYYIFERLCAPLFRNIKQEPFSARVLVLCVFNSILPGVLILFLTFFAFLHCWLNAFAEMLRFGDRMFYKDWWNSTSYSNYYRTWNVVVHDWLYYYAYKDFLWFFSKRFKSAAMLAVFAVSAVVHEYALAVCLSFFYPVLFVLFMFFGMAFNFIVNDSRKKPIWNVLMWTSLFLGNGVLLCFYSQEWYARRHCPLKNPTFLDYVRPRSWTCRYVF
The assay is described as follows: Fluorescent cell-based assay measuring esterification of NBD-cholesterol in AC29 cells expressing huACAT1.
From the text: In the methods described herein, the agent inhibits the ability of huACAT1 to catalyze the esterification of free cholesterol into cholesteryl ester. […] AC29 cells lack endogenous ACAT1 activity and are transfected to express human ACAT1. The assay uses 22-[N-(7-nitrobenz-2-oxa-1,3-diazol-4-yl)amino]-23,24-bisnor-5-cholen-3-ol (NBD-cholesterol), a fluorescent sterol analog in which the NBD moiety replaces the terminal segment of the alkyl tail of cholesterol. […] In a polar environment, NBD-cholesterol is weakly fluorescent. In a nonpolar environment, NBD-cholesterol is strongly fluorescent. The fluorescent property of NBD-cholesterol is used to measure ACAT activity, as cholesterol is a polar lipid and cholesteryl ester is nonpolar. Untransfected AC29 cells or AC29 cells expressing huACAT1 treated with a known ACAT inhibitor can be used to determine background fluorescence due to free-NBD-cholesterol.
as §1, §2

Another assay relates to adrenocortical cells. Particulars: as reported in the literature; cited from earlier work.
The subject of assay [1] is H295R cells. Briefly: Caspase-3/7 activity (Apotox-Glo) in H295R cells with exogenous cholesterol. As to conditions: compound at its ACAT1 IC50 concentration, 45 ug/mL exogenous cholesterol, 5 hours. It is filed as cell-based, human. On the procedure:
Commercially-available assay kits may also be employed to measure Caspase 3/7 activity, including for example the Apotox-Glo Assay Kit (Promega). […] H295R cells are plated at 500,000 cells/well in a 12 well plate. After overnight incubation at 37° C., media is removed and replaced with media containing vehicle (DMSO) or one of the ACAT1 inhibitors at its ACAT1 IC50 concentration in the presence of 45 ug/mL exogenous cholesterol. After 5 hours of treatment, cells are harvested, washed and assayed for Caspase-3/7 activity using the Apotox-Glo Assay Kit (Promega).

For another assay, the system named is H295R. Briefly: Free and esterified cholesterol in H295R cells with exogenous cholesterol. It is filed as cell-based, human. Particulars: compound at its ACAT1 IC50 concentration, 45 μg/ml cholesterol. Here is the method:
In this study, H295R were plated at 200,000 cells/well in a 24 well plate. After overnight incubation at 37° C., media was removed and replaced with treatment media (test compound at its ACAT1 IC50 concentrations containing 45 μg/ml cholesterol) or vehicle (DMSO). After treatment of cells for various lengths of time (minutes to hours), media was removed and cells are washed twice with cold PBS. 200 ul of hexane/isopropanol (3:2) was then added to each well, the plate was rocked at room temperature for 1 hour, and the supernatant was transferred to glass vials and allowed to air dry. Residual lipids were resuspended and total cholesterol and free cholesterol were measured using the Cholesterol Fluorometric Assay Kit (Cayman Chemical). Cholesterol ester was determined by subtracting free cholesterol from total cholesterol.

Assay [2] relates to H295R cells. The assay is described as follows: XBP-1 splicing (unfolded protein response) in H295R cells with exogenous cholesterol. As to conditions: compound at its ACAT1 IC50 concentration, 45 ug/mL exogenous cholesterol, 5 hours. Format: cell-based, human. Here is the method:
Treatment of H295R cells by an agent can result in chronic disruption of cholesterol homeostasis that may lead to activation of the UPR and/or triggering of the programmed cell death response and the induction apoptotic markers.
H295R adrenocortical cells are plated at 500,000 cells/well in a 12-well culture plate as described in Example 8. […]. After 5 hours of treatment, RNA is extracted using the Qiagen RNEasy® Plus kit and 1 μg RNA is reverse transcribed using Applied Biosystems® High-Capacity cDNA Reverse Transcription Kit. XBP-1 splicing product is amplified by PCR using primer pairs that allow detection of the activated isoform (5′-[…]-3′ (SEQ ID NO:15) and 5′-[…]-3′ (SEQ ID NO:16)) under the following conditions: 1) 95° C. for 30 sec, 2) 95° C. for 15 sec; 3) 50° C. for 15 sec, 4) 68° C. for 30 sec. […] Amplification steps 2 through 4 are repeated for 30 cycles. PCR product is resolved on a 5% agarose gel. DTT treated cells serve as a positive control for XBP-1 splicing. An increase in the XBP-1 splice variant expression of greater than 20% is considered significant.

For assay [3], the system named is adrenocortical carcinoma (ACC). As to conditions: cited from earlier work.
Where [4] appears, read: Table 2, second IC50 column (head repeats huACAT1), AC29 transfectants, NBD-cholesterol, read-out: IC50 huACAT1.
Where [5] appears, read: Table 2, first IC50 column, AC29 cells expressing huACAT1, 1 μg/ml NBD-cholesterol, 6 hr, read-out: IC50 huACAT1.
Where [6] appears, read: Table 3, determined as described in Example 1, read-out: ACAT1 IC50.

Read-outs that look alike come from different tables or passages of the source.

On to `CCCCC[C@H]1C=C[C@@H](CCCCC)SC1[C@@H](C)Nc1c(SC)cc(C)nc1SC` (some centres unmarked) [Compound 6], for which the values for the concentration for half-maximal inhibition (IC50) on human ACAT2 (setting [4]) and on human ACAT1 (setting [5]) were 18 nM and 1.8 nM, respectively.
For the molecule `CCCCCCCCC(C)(C)C(=O)Nc1c(OC)cc(OC)cc1OC` [Compound 7], the concentration for half-maximal inhibition (IC50) at human ACAT1 (setting [5]) came to 540 nM.
In the case of `CCCCCCCCCCCCn1nnc(C(C(=O)Nc2c(C(C)C)cccc2C(C)C)c2ccccc2)n1` (centres unmarked) [Compound 3, 2H-Tetrazole-5-acetamide, N-[2,6-bis(1-methylethyl)phenyl]-2-dodecyl-a-phenyl-], the results for the half-maximal inhibitory concentration (IC50) at human ACAT2 (setting [4]), at human ACAT1 (setting [5]) and at human ACAT1 (setting [6]) were 510 nM, 2000 nM and 11 nM, respectively. The Adrenal activity result with adrenocortical cells is on record as “Adrenal acting”. In addition, the “Caspase-3/7 activity compared to vehicle” value in the assay with H295R cells [1] is given as “significant increases”. In addition, the “free cholesterol compared to vehicle” value in the assay on H295R is “increase in free cholesterol”. For the same molecule, the “splicing of XBP-1 compared to vehicle” value in the assay with H295R cells [2] was “significant splicing of XBP-1”.
`CC(C)c1cccc(C(C)C)c1OC(=O)NS(=O)(=O)Oc1c(C(C)C)cccc1C(C)C` [Compound 1]: the concentration for half-maximal inhibition (IC50) against human ACAT2 was 440 nM; on human ACAT1 it was 2400 nM.
As for `CCCCCCCCCCCCCOC(=O)C(C(=O)Nc1c(C(C)C)cccc1C(C)C)c1ccccc1` (centres unmarked) [Compound 2], the half-inhibitory concentration (IC50) on human ACAT2 (setting [4]) came out at 21 nM; at human ACAT1 (setting [5]), 20 nM.
In the case of `Clc1ccc(C(c2ccccc2Cl)C(Cl)Cl)cc1` (centres unmarked) [mitotane], in assay [3] (ACC patients that derive a therapeutic benefit), the “delay of disease progression, average” value is “five”. Further, the “share of patients with increased progression-free survival” value in assay [3] (ACC patients) is given as “one-quarter to one-third”.
In the case of `Cc1ccc2oc(CN(Cc3ccccc3)C(=O)Nc3c(F)cc(F)cc3F)c(-c3ccc(Cl)cc3)c2c1` [Compound 5], the results for the IC50 on human ACAT2 (setting [4]), at human ACAT1 (setting [5]) and on human ACAT1 (setting [6]) were 80 nM, 6 nM and 10 nM, respectively. The Adrenal activity entry with adrenocortical cells is listed as “Adrenal acting”. Further, the “Caspase-3/7 activity compared to vehicle” value in the assay on H295R cells [1] is reported as “significant increases”. Further, the “free cholesterol compared to vehicle” value in the assay on H295R is “increase in free cholesterol”. For the same molecule, the “splicing of XBP-1 compared to vehicle” value in the assay on H295R cells [2] is on record as “significant splicing of XBP-1”.
